Laboratory results from patent US20100137313A1 (ASTRAZENECA AB, priority 2008, published 2010).

Biological target: S. pneumoniae Topoisomerase IV ATPase (ParE) (Streptococcus pneumoniae serotype 4, UniProt Q59961)
Experiment: S. pneumoniae Topoisomerase IV ATPase inhibition
Type: biochemical
Details: values marked * are an average of two or more data points, read-out: % Inh (13 μM) of S. pneumoniae Topoisomerase IV ATPase
Outline: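 ParE ATPase (1.25 nM) run with 160 μM ATP and 5 μg/ml sheared salmon sperm DNA in Tris pH 8.0, Mg2+, glycerol, DTT, Brij-35. Phosphate released read by malachite green/molybdate absorbance at 650 nm. IC50 from 10 compound concentrations; DMSO (2%) as 0% and EDTA (20 μM) as 100% inhibition.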

S. pneumoniae Topoisomerase IV ATPase (ParE), sequence (Q59961 whole entry): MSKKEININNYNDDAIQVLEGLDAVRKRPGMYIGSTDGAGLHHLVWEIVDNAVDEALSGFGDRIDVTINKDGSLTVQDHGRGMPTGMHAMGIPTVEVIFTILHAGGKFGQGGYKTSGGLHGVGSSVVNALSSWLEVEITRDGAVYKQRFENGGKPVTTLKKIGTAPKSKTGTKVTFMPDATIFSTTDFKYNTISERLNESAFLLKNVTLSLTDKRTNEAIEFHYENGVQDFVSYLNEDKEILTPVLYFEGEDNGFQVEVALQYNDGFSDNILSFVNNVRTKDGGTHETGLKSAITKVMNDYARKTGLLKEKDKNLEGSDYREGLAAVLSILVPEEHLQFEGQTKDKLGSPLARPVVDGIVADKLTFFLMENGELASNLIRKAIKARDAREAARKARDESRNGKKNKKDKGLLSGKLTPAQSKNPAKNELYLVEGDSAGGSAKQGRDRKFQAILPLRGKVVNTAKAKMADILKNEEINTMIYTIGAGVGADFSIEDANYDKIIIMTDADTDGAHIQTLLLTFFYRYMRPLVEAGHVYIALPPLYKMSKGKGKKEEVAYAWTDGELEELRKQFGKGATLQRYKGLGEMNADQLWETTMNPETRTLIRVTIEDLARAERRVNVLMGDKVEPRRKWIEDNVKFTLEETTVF

| SMILES | inhibition at 13 µM [%] |
| --- | --- |
| O=C(O)/C=C/c1cccc(-c2cnc(Nc3ccc4c(c3)OCO4)nc2-n2ccc(C(F)(F)F)n2)c1 [Example 657, (2E)-3-(3-{2-(1,3-benzodioxol-5-ylamino)-4-[3-(trifluoromethyl)-1H-pyrazol-1-yl]pyrimidin-5-yl}phenyl)prop-2-enoic acid] | 100 |
| CCOC(=O)c1cncc(-c2cnc(Nc3ccc(F)c(Cl)c3)nc2NC2CCN(C(C)=O)CC2)c1 [Example 92, 5-[4-(1-Acetyl-piperidin-4-ylamino)-2-(3-chloro-4-fluoro-phenylamino)-pyrimidin-5-yl]-nicotinic acid ethyl ester] | 3.56 |
| COc1ccc(-c2cnc(Nc3ccc(F)c(Cl)c3)nc2NCCCN(C)C)cc1C(F)(F)F [Example 7, N^2-(3-chloro-4-fluorophenyl)-N^4-(3-(dimethylamino)propyl)-5-(4-methoxy-3(trifluoromethyl)phenyl)pyrimidine-2,4-diamine] | 98.7 |
| COc1cc(Nc2ncc(-c3cnc(OC)c(C(=O)NS(=O)(=O)c4cn(C)nc4C(F)(F)F)c3)c(-n3nc(C(F)(F)F)cc3C)n2)cc(OC)c1 [Example 845, 5-{2-[(3,5-dimethoxyphenyl)amino]-4-[5-methyl-3-(trifluoromethyl)-1H-pyrazol-1-yl]pyrimidin-5-yl}-2-methoxy-N-{[1-methyl-3-(trifluoromethyl)-1H-pyrazol-4-yl]sulfonyl}pyridine-3-carboxamide] | 92 |
| CCC(C)Nc1nc(Nc2ccc(F)c(Cl)c2)ncc1-c1ccc(OC)c(C(F)(F)F)c1 (stereo not drawn) [Example 1109, N′-butan-2-yl-N-(3-chloro-4-fluorophenyl)-5-[4-methoxy-3-(trifluoromethyl)phenyl]pyrimidine-2,4-diamine] | 28 |
| CONC(=O)c1cncc(-c2cnc(Nc3ccc(F)c(Cl)c3)nc2NCCc2ccncc2)c1 [Example 477, 5-(2-[(3-chloro-4-fluorophenyl)amino]-4-{[2-(pyridin-4-yl)ethyl]amino}pyrimidin-5-yl)-N-methoxypyridine-3-carboxamide] | 100 |
| CCS(=O)(=O)NC(=O)c1cc(-c2cnc(Nc3cc(OC)cc(OC)c3)nc2-n2ccc(C(F)(F)F)n2)cnc1OC [Example 814, 5-{2-[(3,5-dimethoxyphenyl)amino]-4-[3-(trifluoromethyl)-1H-pyrazol-1-yl]pyrimidin-5-yl}-N-(ethylsulfonyl)-2-methoxypyridine-3-carboxamide] | 100 |
| Cc1cc(C(F)F)n(-c2nc(Nc3ccc(F)c(Cl)c3)ncc2-c2cncc(C(=O)O)c2)n1 [Example 531, 5-{2-[(3-chloro-4-fluorophenyl)amino]-4-[5-(difluoromethyl)-3-methyl-1H-pyrazol-1-yl]pyrimidin-5-yl}pyridine-3-carboxylic acid] | 100 |
| Cc1cc(C(F)(F)F)nn1-c1nc(Nc2ccc(F)c(Cl)c2)ncc1-c1cnc(OCCn2ccnc2)c(C(=O)O)c1 [Example 795, 5-{2-[(3-chloro-4-fluorophenyl)amino]-4-[5-methyl-3-(trifluoromethyl)-1H-pyrazol-1-yl]pyrimidin-5-yl}-2-[2-(1H-imidazol-1-yl)ethoxy]pyridine-3-carboxylic acid] | 100 |
| CCOC(=O)/C=C/c1cccc(-c2cnc(Nc3ccc(F)c(Cl)c3)nc2NCCCNC(=O)c2cnc(C)cn2)c1 [Example 165] | 56.9 |
| Cc1cc(C(F)(F)F)nn1-c1nc(Nc2cccc(C#N)c2)ncc1-c1cccc(/C=C/C(=O)O)c1 [Example 693, (2E)-3-(3-{2-[(3-cyanophenyl)amino]-4-[5-methyl-3-(trifluoromethyl)-1H-pyrazol-1-yl]pyrimidin-5-yl}phenyl)prop-2-enoic acid] | 97 |
| COc1cc(Nc2ncc(-c3cncc(C(=O)CS(C)(=O)=O)c3)c(-n3nc(C(F)(F)F)cc3C)n2)cc(C(F)(F)F)c1 [Example 881, 1-(5-(2-(3-methoxy-5-(trifluoromethyl)phenylamino)-4-(5-methyl-3-(trifluoromethyl)-1H-pyrazol-1-yl)pyrimidin-5-yl)pyridin-3-yl)-2-(methylsulfonyl)ethanone] | 97 |
| O=C(O)/C=C/c1cccc(-c2cnc(Nc3cc(F)cc(F)c3)nc2-n2ccc(C(F)(F)F)n2)c1 [Example 619, (2E)-3-(3-{2-[(3,5-difluorophenyl)amino]-4-[3-(trifluoromethyl)-1H-pyrazol-1-yl]pyrimidin-5-yl}phenyl)prop-2-enoic acid] | 100 |
| O=C(O)c1cncc(-c2cnc(Nc3ccc(F)c(Cl)c3)nc2N2CCC(N3CCOCC3)CC2)c1 [Example 246, 5-[2-[(3-chloro-4-fluorophenyl)amino]-4-(4-morpholin-4-ylpiperidin-1-yl)pyrimidin-5-yl]pyridine-3-carboxylic acid] | 74.9 |
| COc1c(F)cc(Nc2ncc(-c3cccc(/C=C/C(=O)O)c3)c(N3CCOCC3)n2)cc1F [Example 403, (E)-3-{3-[2-(3,5-Difluoro-4-methoxy-phenylamino)-4-morpholin-4-yl-pyrimidin-5-yl]-phenyl}-acrylic acid] | 30 |
| COc1cc(-c2cnc(Nc3ccc(F)c(Cl)c3)nc2NCCCN(C)C)cc(OC)n1 [Example 8, N^2-(3-chloro-4-fluorophenyl)-5-(2,6-dimethoxypyridin-4-yl)-N^4-(3-(dimethylamino)propyl)-pyrimidin-2,4-diamine] | 87.6 |
| CCOC(=O)c1cncc(-c2cnc(Nc3ccc(F)c(Cl)c3)nc2NCCc2cccnc2)c1 [Example 102, 5-[2-(3-Chloro-4-fluoro-phenylamino)-4-(2-pyridin-3-yl-ethylamino)-pyrimidin-5-yl]-nicotinic acid ethyl ester] | 73.5 |
| COc1cc(Nc2ncc(-c3cncc(C(=O)O)c3)c(-n3nc(C(F)(F)F)cc3C)n2)cc(C(F)(F)F)c1 [Example 913, 5-(2-(3-methoxy-5-(trifluoromethyl)phenylamino)-4-(5-methyl-3-(trifluoromethyl)-1H-pyrazol-1-yl)pyrimidin-5-yl)nicotinic acid] | 100 |
| CONC(=O)c1cncc(-c2cnc(Nc3ccc(F)c(Cl)c3)nc2-n2cc(-c3ccncn3)cn2)c1 [Example 551, 5-{2-[(3-chloro-4-fluorophenyl)amino]-4-[4-(pyrimidin-4-yl)-1H-pyrazol-1-yl]pyrimidin-5-yl}-N-methoxypyridine-3-carboxamide] | 100 |
| Fc1ccc(Nc2ncc(-c3cncnc3)c(N3CCC3)n2)cc1Cl [Example 67, 4-(azetidin-1-yl)-N-(3-chloro-4-fluorophenyl)-5-pyrimidin-5-ylpyrimidin-2-amine] | 53.4 |
| COc1cc(Nc2ncc(-c3cccc(/C=C/C(N)=O)c3)c(NCCc3ccncc3)n2)cc(C(F)(F)F)c1 [Example 373, (E)-3-(3-(2-(3-methoxy-5-(trifluoromethyl)phenylamino)-4-(2-(pyridin-4-yl)ethylamino)pyrimidin-5-yl)phenyl)acrylamide] | 82.8 |
| CCOC(=O)c1cncc(-c2cnc(Nc3ccc(F)c(Cl)c3)nc2NCc2ccccn2)c1 [Example 95, 5-{2-(3-Chloro-4-fluoro-phenylamino)-4-[(pyridin-2-ylmethyl)-amino]-pyrimidin-5-yl}-nicotinic acid ethyl ester] | -0.48 |
| COc1cc(Nc2ncc(-c3cnc(OC)c(C(=O)NS(=O)(=O)c4sc(NC(C)=O)nc4C)c3)c(-n3nc(C(F)(F)F)cc3C)n2)cc(OC)c1 [Example 834, N-{[2-(acetylamino)-4-methyl-1,3-thiazol-5-yl]sulfonyl}-5-{2-[(3,5-dimethoxyphenyl)amino]-4-[5-methyl-3-(trifluoromethyl)-1H-pyrazol-1-yl]pyrimidin-5-yl}-2-methoxypyridine-3-carboxamide] | 98 |
| CCC1COC(C)CN1c1nc(Nc2ccc(F)c(Cl)c2)ncc1-c1cncc(C(=O)O)c1 (stereo not drawn) [Example 1058, 5-(2-(3-Chloro-4-fluorophenylamino)-4-(5-ethyl-2-methylmorpholino)pyrimidin-5-yl)nicotinic acid] | 87 |
| O=C(O)c1cc(-c2cnc(Nc3ccc(F)c(Cl)c3)nc2-n2ccc(C(F)(F)F)n2)cn(CCO)c1=O [Example 1083, 5-(2-(3-Chloro-4-fluorophenylamino)-4-(3-(trifluoromethyl)-1H-pyrazol-1-yl)pyrimidin-5-yl)-1-(2-hydroxyethyl)-2-oxo-1,2-dihydropyridine-3-carboxylic acid] | 99 |
| CCOC(=O)c1cncc(-c2cnc(Nc3ccc(F)c(Cl)c3)nc2NCCc2ccncc2)c1 [Example 103, 5-[2-(3-Chloro-4-fluoro-phenylamino)-4-(2-pyridin-4-yl-ethylamino)-pyrimidin-5-yl]-nicotinic acid ethyl ester] | 79.5 |
| Cc1cnc(C(=O)NCCCNc2nc(Nc3ccc(F)c(Cl)c3)ncc2-c2cccc(/C=C/C(=O)O)c2)cn1 [Example 292, (E)-3-(3-(2-(3-chloro-4-fluorophenylamino)-4-(3-(5-methylpyrazine-2-carboxamido)propylamino)-pyrimidin-5-yl)phenyl)acrylic acid] | 81 |
| Cc1cc(C)n(-c2nc(Nc3ccc(F)c(Cl)c3)ncc2-c2cncnc2)n1 [Example 82, N-(3-chloro-4-fluorophenyl)-4-(3,5-dimethyl-1H-pyrazol-1-yl)-5,5′-bipyrimidin-2-amine] | 80.1 |
| CNC(=O)c1cc(-c2cnc(Nc3ccc(F)c(Cl)c3)nc2-n2ccc(C(F)(F)F)n2)cnc1OC [Example 1100, 5-(2-(3-chloro-4-fluorophenylamino)-4-(3-(trifluoromethyl)-1H-pyrazol-1-yl)pyrimidin-5-yl)-2-methoxy-N-methylnicotinamide] | 75 |
| CN(C)CCCNc1nc(Nc2ccc(F)c(Cl)c2)ncc1-c1cc2ccccc2o1 [Example 9, 5-(benzofuran-2-yl)-N^2-(3-chloro-4-fluorophenyl)-N^4-(3-(dimethylamino)propyl)pyrimidine-2,4-diamine] | 60 |
